These results are taken from ChEMBL document CHEMBL4043281, “Development of a peptide-based inducer of protein degradation targeting NOTCH1” (Bioorg Med Chem Lett, 2017).

The structures appear in SMILES notation. Active and inactive are the calls of the source. The rule behind the calls is not given here. Positions of bridges follow the written chain, without caps; N, C: chain ends. Non-standard residues stand in square brackets, D forms with d. Residues, ends and D or L forms follow the SMILES beside them. Dip = N[C@H](C(=O)O)C(c1ccccc1)c1ccccc1; Chg = N[C@H](C(=O)O)C1CCCCC1; S5 = C=CCCC[C@](C)(N)C(=O)O; NMeA = CN[C@@H](C)C(=O)O; AEEA = NCCOCCOCC(=O)O; βAla = NCCC(=O)O

The species named for series [1] is Homo sapiens. The series can be described thus: Induction of IAP-mediated NOTCH1 protein degradation in human MOLT4 cells assessed as ratio of NOTCH1 to lamin protein level at 50 uM after 6 hrs by Western blot analysis (reference value: 100%). It counts as cell-based. (In general: Immunoblotting shows a protein as a band on a membrane.)
For series [2], the species on record is Homo sapiens. In words: Induction of IAP-mediated NOTCH1 protein degradation in human MOLT4 cells assessed as ratio of NOTCH1 to lamin protein level at 20 uM after 6 hrs by Western blot analysis (reference value: 100%). The class given is cell-based.
The test system of series [3] is MOLT-4. The series can be described thus: Induction of CSL protein degradation in human MOLT4 cells assessed as ratio of CSL to lamin protein level at 100 uM after 6 hrs by Western blot analysis (reference value: 100%). It counts as functional.
For series [4], the species on record is Homo sapiens. The series can be described thus: Induction of IAP-mediated NOTCH1 protein degradation in human MOLT4 cells assessed as ratio of NOTCH1 to lamin protein level at 100 uM after 6 hrs by Western blot analysis (reference value: 100%). The class given is cell-based.
In series [5] the test system is MOLT-4. The series can be described thus: Cytotoxicity against human MOLT4 cells at >100 uM. The class given is cell-based.
The test system of series [6] is MOLT-4. The series can be described thus: Induction of CSL protein degradation in human MOLT4 cells assessed as ratio of CSL to lamin protein level at 20 uM after 6 hrs by Western blot analysis (reference value: 100%). It counts as functional.
Series [7] concerns MOLT-4. In words: Induction of CSL protein degradation in human MOLT4 cells assessed as ratio of CSL to lamin protein level at 50 uM after 6 hrs by Western blot analysis (reference value: 100%). It counts as functional.
The species entered for series [8] is Homo sapiens. In words: Induction of IAP-mediated NOTCH1 protein degradation in human MOLT4 cells assessed as ratio of NOTCH1 to lamin protein level at 70 uM after 6 hrs by Western blot analysis (reference value: 100%). The class given is cell-based.
Series [9] is filed under the species Homo sapiens. The series can be described thus: Antagonist activity IAP in human MOLT4 cells assessed as reduction in cIAP1 protein level at 50 to 80 uM after 6 hrs by Western blot analysis. It counts as cell-based.
Series [10] is filed under the species Homo sapiens. The series can be described thus: Induction of IAP-mediated NOTCH1 protein degradation in human MOLT4 cells assessed as ratio of NOTCH1 to lamin protein level at 60 uM after 6 hrs by Western blot analysis (reference value: 100%). The class given is cell-based.
Series [11] is filed under the species Homo sapiens. In words: Induction of IAP-mediated NOTCH1 protein degradation in human MOLT4 cells assessed as ratio of NOTCH1 to lamin protein level at 80 uM after 6 hrs by Western blot analysis (reference value: 100%). The class given is cell-based.
Series [12] has as its system MOLT-4. The series can be described thus: Induction of CSL protein degradation in human MOLT4 cells assessed as ratio of CSL to lamin protein level at 60 uM after 6 hrs by Western blot analysis (reference value: 100%). It counts as functional.
For series [13], the system named is MOLT-4. In words: Induction of CSL protein degradation in human MOLT4 cells assessed as ratio of CSL to lamin protein level at 80 uM after 6 hrs by Western blot analysis (reference value: 100%). It counts as functional.
Series [14] relates to MOLT-4. The series can be described thus: Induction of CSL protein degradation in human MOLT4 cells assessed as ratio of CSL to lamin protein level at 70 uM after 6 hrs by Western blot analysis (reference value: 100%). It counts as functional.

In the case of `CC[C@H](C)[C@H](NC(=O)[C@H](CCCNC(=N)N)NC(=O)[C@H](CCCNC(=N)N)NC(=O)[C@H](CCCNC(=N)N)NC(=O)[C@H](CC(C)C)NC(=O)[C@H](CCCNC(=N)N)NC(=O)[C@H](CCC(=O)O)NC(=O)CCNC(=O)COCCOCCNC(=O)[C@@H](NC(=O)[C@@H]1CCCN1C(=O)[C@@H](NC(=O)[C@H](C)NC)C1CCCCC1)C(c1ccccc1)c1ccccc1)C(=O)N[C@@H](CCC(=O)O)C(=O)N[C@@H](CC(C)C)C(=O)N[C@@H](CS)C(=O)N[C@@H](CCCNC(=N)N)C(=O)N[C@@H](CCCNC(=N)N)C(=O)N[C@@H](Cc1cnc[nH]1)C(=O)N[C@@H](Cc1cnc[nH]1)C(=O)N[C@@H](CO)C(=O)N[C@H](C(=O)O)[C@@H](C)O` (H-[NMeA][Chg]P[Dip][AEEA][βAla]ERLRRRIELCRRHHST-OH), the Ratio in the series filed under Homo sapiens [1] came to 100%; in the series listed under Homo sapiens [2], 116%; in the series on MOLT-4 [3] it was 99%; in the series filed under Homo sapiens [4] it was 85%; in the series on MOLT-4 [6] it was 115%; in the series on MOLT-4 [7], 108%. In addition, the Activity entry in the series with MOLT-4 [5] is listed as “Toxic”.

In the case of `CC[C@H](C)[C@H](NC(=O)[C@H](CCCNC(=N)N)NC(=O)[C@H](CCCNC(=N)N)NC(=O)[C@H](CCCNC(=N)N)NC(=O)[C@H](CC(C)C)NC(=O)[C@H](CCCNC(=N)N)NC(=O)[C@H](CCC(=O)O)NC(=O)CCNC(=O)COCCOCCNC(=O)[C@@H](NC(=O)[C@@H]1CCCN1C(=O)[C@@H](NC(=O)[C@H](C)NC)C1CCCCC1)C(c1ccccc1)c1ccccc1)C(=O)N[C@@]1(C)CCC/C=C\CCC[C@@](C)(C(=O)N[C@@H](CCCNC(=N)N)C(=O)N[C@@H](Cc2cnc[nH]2)C(=O)N[C@@H](Cc2cnc[nH]2)C(=O)N[C@@H](CO)C(=O)N[C@H](C(=O)O)[C@@H](C)O)NC(=O)[C@H](CS)NC(=O)[C@H](CC(C)C)NC1=O` (H-[NMeA][Chg]P[Dip][AEEA][βAla]ERLRRRI[S5]LC[S5]RHHST-OH; staple (Z) 14-17), the Ratio was 99% in the series listed under Homo sapiens [8]; 106% in the series filed under Homo sapiens [10]; 87 to 99% in the series listed under Homo sapiens [1]; 77% in the series filed under Homo sapiens [11]; 105% in the series listed under Homo sapiens [2]; 115% with MOLT-4 [3]. In addition, the Ratio in the series filed under Homo sapiens [4] is 74%; in the series with MOLT-4 [12], 104%; with MOLT-4 [13], 102%; with MOLT-4 [14], 115%; in the series with MOLT-4 [6] it was 105%; with MOLT-4 [7] it was 105 - 108%. Moreover, in the series filed under Homo sapiens [9], the inhibition result was “Active”. The Activity result in the series on MOLT-4 [5] is “Toxic”.

Turning to `CC[C@H](C)[C@H](NC(=O)[C@H](CCCNC(=N)N)NC(=O)[C@H](CCCNC(=N)N)NC(=O)[C@H](CCCNC(=N)N)NC(=O)[C@H](CC(C)C)NC(=O)[C@H](CCCNC(=N)N)NC(=O)[C@H](CCC(=O)O)NC(=O)CCN)C(=O)N[C@@H](CCC(=O)O)C(=O)N[C@@H](CC(C)C)C(=O)N[C@@H](CS)C(=O)N[C@@H](CCCNC(=N)N)C(=O)N[C@@H](CCCNC(=N)N)C(=O)N[C@@H](Cc1cnc[nH]1)C(=O)N[C@@H](Cc1cnc[nH]1)C(=O)N[C@@H](CO)C(=O)N[C@H](C(=O)O)[C@@H](C)O` (H-[βAla]ERLRRRIELCRRHHST-OH), the Ratio in the series listed under Homo sapiens [1] worked out at 118%; in the series filed under Homo sapiens [2] it was 101%; in the series with MOLT-4 [3] it was 113%; in the series listed under Homo sapiens [4] it was 108%; with MOLT-4 [6], 107%; in the series with MOLT-4 [7] it was 115%. In addition, the Activity result in the series on MOLT-4 [5] is recorded as “Toxic”.

For the compound `CC[C@H](C)[C@H](NC(=O)[C@H](CCCNC(=N)N)NC(=O)[C@H](CCCNC(=N)N)NC(=O)[C@H](CCCNC(=N)N)NC(=O)[C@H](CC(C)C)NC(=O)[C@H](CCCNC(=N)N)NC(=O)[C@H](CCC(=O)O)NC(=O)CCN)C(=O)N[C@@]1(C)CCC/C=C\CCC[C@@](C)(C(=O)N[C@@H](CCCNC(=N)N)C(=O)N[C@@H](Cc2cnc[nH]2)C(=O)N[C@@H](Cc2cnc[nH]2)C(=O)N[C@@H](CO)C(=O)N[C@H](C(=O)O)[C@@H](C)O)NC(=O)[C@H](CS)NC(=O)[C@H](CC(C)C)NC1=O` (H-[βAla]ERLRRRI[S5]LC[S5]RHHST-OH; staple (Z) 9-12), the Ratio in the series filed under Homo sapiens [1] was found to be 105%; in the series listed under Homo sapiens [2], 101%; with MOLT-4 [3], 93%; in the series listed under Homo sapiens [4], 103%; with MOLT-4 [6], 105%; in the series on MOLT-4 [7] it was 94%. In addition, the Activity entry in the series with MOLT-4 [5] was “Toxic”.
